# Values joined by “and” are separate entries in the source; they are usually repeats but may differ in a detail not shown here. Identical values can stand only once. Like-named read-outs stand apart in the source and are kept apart here. Ends that are not written are not given here.
# How the values were obtained:
# K. pneumoniae biofilm [1] = test: microbe, parasite or virus in culture
# Description: (§1) The effects of both conventional antibiotics and AMPs against bacteria under biofilm-stimulating condition were determined using a transferable solid phase (TSP) pin lid, which resembles the ‘Calgary’ biofilm device as previously described with some modifications. Each strain (10^7 CFU/ml) was added to sterile 96-well plates (Nunclon™), then covered by a TSP pin lid (NUNC™, Roskilde, Denmark), and further incubated at 37 °C for 24 h. […] Additionally, the effect of TOB (2–836 μM or 1–391 μg/ml) against P. aeruginosa biofilm was also investigated. Then the plates were statically incubated at 37 °C for 24 h. A well free of antimicrobial agent was used as a control. After 24 h, bacterial survival was determined using the plate count technique on NA (Himedia®). The percentage killing of each antimicrobial agent was calculated using the formula [1 − (CFU sample/CFU control)] × 100% [15, 19]. […] Each experiment was performed independently three times in duplicate.
# S. epidermidis biofilm [2] = test: microbe, parasite or virus in culture
# Description: as §1
# P. aeruginosa biofilm [3] = test: microbe, parasite or virus in culture
# Description: as §1
# S. epidermidis [4] = test: Disc antimicrobial susceptibility test (BD BBL Sensi-Disc); type: cell-based, Staphylococcus epidermidis; parameters: key: Susceptible; Intermediate; Resistant; conditions: 24 h
# Description: (§2) Supplementary file pone.0243315.s001.docx: S1 Table Antimicrobial susceptibility test results of reference strain and representative bacteria used from CRS patients. Bacterial suspensions were incubated with antibiotics for 24 h and the results were interpreted according to BD BBL™ Sensi-Disc™ antimicrobial susceptibility test discs. (DOCX) Click here for additional data file.
# (§3) Antibiotics susceptibility testing was performed using BD BBL™ Sensi-Disc™ antimicrobial susceptibility test discs (Becton, Dickinson and Company, Franklin Lakes, NJ) and the results were interpreted according to the manufacturer's instructions.
# P. aeruginosa biofilm [5] = test: Checkerboard synergy of D-LL-31 with antibiotics on biofilm; type: cell-based, Pseudomonas aeruginosa
# Description: (§4) Bacterial viability in each interaction was determined using the plate count technique. The fractional inhibitory concentration index (FICI) values were calculated and interpreted in terms of synergism/antagonism as previously described. Each experiment was performed independently three times in duplicate.
# K. pneumoniae [6] = test: Disc antimicrobial susceptibility test (BD BBL Sensi-Disc); type: cell-based, Klebsiella pneumoniae; parameters: key: Susceptible; Intermediate; Resistant; conditions: 24 h
# Description: as §2, §3
# P. aeruginosa [7] = test: Broth microdilution MIC/MBC of conventional antibiotics, planktonic form; type: cell-based, Pseudomonas aeruginosa; conditions: for MBC: broth microdilution then plate count on MHA, planktonic
# Description: (§5) MICs and MBCs of conventional antibiotics were determined using a broth microdilution technique. […] Only P. aeruginosa was additionally tested for susceptibility to TOB (Sigma-Aldrich) (0.03–52 μM or 0.01–25 μg/ml). Bacterial suspensions (5 x 10^5 CFU/ml) were added to the microtiter plates, which were then incubated at 37 °C for 24 h. Antibiotic-free culture was used as a control. […] The results were confirmed using a microplate reader at OD620 (Sunrise™, TECAN, Australia). The plate count technique was further used to determine the MBC values on Mueller Hinton agar (MHA) (Himedia®). Each experiment was performed independently three times in triplicate.
# [8] = tested on: clinical isolate P. aeruginosa; test: Killing of planktonic bacteria (CFU count); type: cell-based, Pseudomonas aeruginosa; conditions: 1–2 h
# Description: (§6) A bacterial suspension without peptide served as a control. The samples were then serially diluted and cultivated on NA (Himedia®) and incubated for 24 h to allow colony counting. The percentage killing by each AMP was calculated using the formula [1 − (CFU sample/CFU control)] × 100% [15, 36]. Each experiment was performed independently three times in duplicate.
# [9] = tested on: reference strain P. aeruginosa ATCC 27853; test: Killing of planktonic bacteria (CFU count); type: cell-based, Pseudomonas aeruginosa
# Description: as §6
# P. aeruginosa [10] = test: Disc antimicrobial susceptibility test (BD BBL Sensi-Disc); type: cell-based, Pseudomonas aeruginosa; parameters: key: Susceptible; Intermediate; Resistant; conditions: 24 h
# Description: as §2, §3
# P. aeruginosa ATCC27853 = test: as above; type: cell-based, Pseudomonas aeruginosa; parameters: key: Susceptible; Intermediate; Resistant; conditions: 24 h
# Description: as §2, §3
# [11] = tested on: S. epidermidis biofilm matrix; test: Biofilm matrix reduction (AAA-model, CLSM, COMSTAT biomass); type: cell-based, Staphylococcus epidermidis; conditions: AMX alone at IC50 (33092 μM), 24 h, P < 0.05
# Description: Briefly, 1.5 ml of each overnight culture (10^8 CFU/ml) was added to a 24-well tissue culture plate (Nunclon™). The plate was covered with a sterile stainless-steel lid containing glass coverslips and aerobically incubated at 37°C for 24 h. […] All tested conditions were incubated at 37°C for 24 h. A well free of antimicrobial agent was used as a control. Following incubation, biofilms were fixed with 2.5% glutaraldehyde (Sigma-Aldrich) at 25°C for 3 h. The fixed bacterial biofilms on glass coverslips were stained with 50 μg/ml Alexa Fluor® 488 (Invitrogen, Carlsbad, CA) for 30 min. This stain reacts with exopolysaccharide matrixes of the biofilm. The glass coverslips were then mounted with 80% glycerol and the stained cells were photographed using a confocal laser-scanning microscope (CLSM) (TCS SP8-Leica Microsystems, Wetzlar, Germany). […] Each experiment was performed independently three times in duplicate.
# [12] = tested on: all strains (bacteria isolated from CRS patients); test: Broth microdilution susceptibility, statement for all strains; type: cell-based; conditions: planktonic form
# Description: MICs and MBCs of conventional antibiotics were determined using a broth microdilution technique. […] Only P. aeruginosa was additionally tested for susceptibility to TOB (Sigma-Aldrich) (0.03–52 μM or 0.01–25 μg/ml). Bacterial suspensions (5 x 10^5 CFU/ml) were added to the microtiter plates, which were then incubated at 37 °C for 24 h. Antibiotic-free culture was used as a control. After incubation, MIC values were observed according to the guidelines of the Clinical & Laboratory Standards Institute (CLSI). The results were confirmed using a microplate reader at OD620 (Sunrise™, TECAN, Australia). The plate count technique was further used to determine the MBC values on Mueller Hinton agar (MHA) (Himedia®). Each experiment was performed independently three times in triplicate.
# K. pneumoniae biofilm [13] = test: Checkerboard synergy of D-LL-31 with antibiotics on biofilm; type: cell-based, Klebsiella pneumoniae; conditions: Klebsiella pneumoniae, read-out: Antimicrobial agent in concentration of combination
# Description: as §4
# S. epidermidis biofilm [14] = test: as above; type: cell-based, Staphylococcus epidermidis; conditions: Staphylococcus epidermidis, read-out: Antimicrobial agent in concentration of combination
# Description: as §4
# S. epidermidis [15] = test: Broth microdilution MIC/MBC of conventional antibiotics, planktonic form; type: cell-based, Staphylococcus epidermidis; conditions: MHB, 5 x 10^5 CFU/ml, 37 °C, 24 h, CLSI
# Description: as §5
# K. pneumoniae [16] = test: as above; type: cell-based, Klebsiella pneumoniae; conditions: for MBC: broth microdilution then plate count on MHA; for MIC: broth microdilution, MHB, 5 x 10^5 CFU/ml, 37 °C, 24 h, CLSI
# Description: as §5
# [17] = Pseudomonas aeruginosa, 24 h, read-out: IC50 value
# [18] = highest concentration of AMX (68418 μM or 25000 μg/ml), 24 h biofilm, 24 h
molecule,measurement,setting,value
LLGDFFRKSKEKIGKEFKRIVQRIKDFLRNL [LL-31],IC50,"K. pneumoniae biofilm [1]; biofilm, 24 h",0.7 µM
same,IC50,"S. epidermidis biofilm [2]; biofilm, 24 h",1.8 µM
same,IC50,"P. aeruginosa biofilm [3]; biofilm, 24 h",5.3 µM
"Cc1onc(-c2ccccc2)c1C(=O)N[C@@H]1C(=O)N2[C@@H]1SC(C)(C)[C@@H]2C(=O)O [OXA, Oxacillin]",antimicrobial susceptibility,S. epidermidis [4],S
"NC[C@H]1O[C@H](O[C@H]2[C@H](O)[C@@H](O[C@H]3O[C@H](CO)[C@@H](O)[C@H](N)[C@H]3O)[C@H](N)C[C@@H]2N)[C@H](N)C[C@@H]1O [TOB, tobramycin]",Fold decrease of IC50 values,P. aeruginosa biofilm [5]; D-LL-31 combined with TOB; IC50 alone compared with concentration of combination,16 fold
same,IC50,"P. aeruginosa biofilm [5]; Pseudomonas aeruginosa, 24 h, read-out: Antimicrobial agent in concentration of combination",0.2 µM
same,IC50,"P. aeruginosa biofilm [5]; Pseudomonas aeruginosa, read-out: Antimicrobial agent in concentration of combination",0.1 µg/mL
same,antimicrobial susceptibility,K. pneumoniae [6],S
same,MBC,"P. aeruginosa [7]; Pseudomonas aeruginosa, read-out: MBC",0.001 mM
same,MBC,P. aeruginosa [7],0.4 µg/mL
same,susceptibility in words,P. aeruginosa [7]; planktonic form,susceptible
same,killing effect,[8]; 1 and 5 μM,≥ 92%
same,concentration required to kill all bacterial cells,[8]; planktonic,10 µM
same,killing effect,"[9]; 1 μM, 1 h",≥ 98%
same,"killing of bacterial cells, in words","[9]; 5 and 10 μM, within 1 h",killed all bacterial cells
same,antimicrobial susceptibility,P. aeruginosa [10],S
same,antimicrobial susceptibility,P. aeruginosa ATCC27853,S
same,"sensitivity of biofilm, in words","P. aeruginosa biofilm [3]; 24 h biofilm, 24 h",sensitive
same,IC50,P. aeruginosa biofilm [3]; [17],4 µM and 2 µg/mL
same,antimicrobial susceptibility,S. epidermidis [4],S
"CNC(C)C1CCC(N)C(OC2C(N)CC(N)C(OC3OCC(C)(O)C(NC)C3O)C2O)O1 (centres unmarked) [GEN, Gentamicin]",antimicrobial susceptibility,K. pneumoniae [6],I
same,antimicrobial susceptibility,P. aeruginosa [10],I
same,antimicrobial susceptibility,P. aeruginosa ATCC27853,S
same,antimicrobial susceptibility,S. epidermidis [4],S
"CO/N=C(\C(=O)N[C@@H]1C(=O)N2C(C(=O)O)=C(CSc3nc(=O)c(=O)[nH]n3C)CS[C@H]12)c1csc(N)n1 [CRO, Ceftriaxone]",antimicrobial susceptibility,K. pneumoniae [6],S
same,antimicrobial susceptibility,P. aeruginosa [10],R
same,antimicrobial susceptibility,P. aeruginosa ATCC27853,S
same,antimicrobial susceptibility,S. epidermidis [4],S
Penicillin,antimicrobial susceptibility,S. epidermidis [4],S
"CN(C)[C@@H]1C(O)=C(C(N)=O)C(=O)[C@@]2(O)C(O)=C3C(=O)c4c(O)cccc4[C@@](C)(O)[C@H]3C[C@@H]12 [TET, Tetracycline]",antimicrobial susceptibility,K. pneumoniae [6],I
same,antimicrobial susceptibility,P. aeruginosa [10],R
same,antimicrobial susceptibility,P. aeruginosa ATCC27853,S
same,antimicrobial susceptibility,S. epidermidis [4],S
"O=C(N[C@H](CO)[C@H](O)c1ccc([N+](=O)[O-])cc1)C(Cl)Cl [CHL, Chloramphenicol]",antimicrobial susceptibility,K. pneumoniae [6],S
same,antimicrobial susceptibility,P. aeruginosa [10],R
same,antimicrobial susceptibility,P. aeruginosa ATCC27853,S
same,antimicrobial susceptibility,S. epidermidis [4],S
"CC1(C)S[C@@H]2[C@H](NC(=O)[C@H](N)c3ccc(O)cc3)C(=O)N2[C@H]1C(=O)O [AMX, amoxicillin]",IC50,"P. aeruginosa biofilm [5]; Pseudomonas aeruginosa, 24 h; read-out: Antimicrobial agent in concentration of combination",2820 µM
same,IC50,P. aeruginosa biofilm [5]; Pseudomonas aeruginosa; read-out: Antimicrobial agent in concentration of combination,1030 µg/mL
same,effect on biofilm biomass,[11],significant effect
same,susceptibility in words,[12],Resistance
same,IC50,K. pneumoniae biofilm [13]; 24 h,495 µM
same,IC50,K. pneumoniae biofilm [13],181 µg/mL
same,IC50,S. epidermidis biofilm [14]; 24 h,2070 µM
same,IC50,S. epidermidis biofilm [14],756 µg/mL
same,IC50,"K. pneumoniae biofilm [1]; Klebsiella pneumoniae, 24 h, read-out: IC50 value",7.92 mM and 2900 µg/mL
same,IC50 of AMX higher than that of D-LL-31,K. pneumoniae biofilm [1]; biofilm,~13000 fold
same,killing activity,K. pneumoniae biofilm [1]; [18],90%
same,IC50,"S. epidermidis biofilm [2]; Staphylococcus epidermidis, 24 h, read-out: IC50 value",33.1 mM and 12100 µg/mL
same,IC50 of AMX higher than that of D-LL-31,S. epidermidis biofilm [2]; biofilm,~66000 fold
same,killing activity,S. epidermidis biofilm [2]; [18],75%
same,IC50,P. aeruginosa biofilm [3]; [17],45.2 mM and 16500 µg/mL
same,IC50 of AMX higher than that of D-LL-31,P. aeruginosa biofilm [3]; biofilm,about 11000 fold
same,killing activity,P. aeruginosa biofilm [3]; [18],70%
same,MIC,S. epidermidis [15],1562.5 µg/mL
same,MIC,"S. epidermidis [15]; Staphylococcus epidermidis, read-out: MIC",4.28 mM
same,MBC,"K. pneumoniae [16]; Klebsiella pneumoniae, read-out: MBC",8.55 mM
same,MIC,"K. pneumoniae [16]; Klebsiella pneumoniae, three independent experiments in triplicate, read-out: MIC",4.28 mM
same,MBC,K. pneumoniae [16],3125 µg/mL
same,MIC,K. pneumoniae [16],1562.5 µg/mL
"CC1(C)S[C@@H]2[C@H](NC(=O)[C@H](N)c3ccccc3)C(=O)N2[C@H]1C(=O)O [AMP, Ampicillin]",antimicrobial susceptibility,K. pneumoniae [6],R
same,antimicrobial susceptibility,S. epidermidis [4],R
"NC[C@H]1O[C@H](O[C@H]2[C@H](O)[C@@H](O[C@H]3O[C@H](CO)[C@@H](O)[C@H](N)[C@H]3O)[C@H](N)C[C@@H]2N)[C@H](O)[C@@H](O)[C@@H]1O [KAN, Kanamycin]",antimicrobial susceptibility,K. pneumoniae [6],S
same,antimicrobial susceptibility,S. epidermidis [4],S
"CC[C@H]1OC(=O)[C@H](C)[C@@H](O[C@H]2C[C@@](C)(OC)[C@@H](O)[C@H](C)O2)[C@H](C)[C@@H](O[C@@H]2O[C@H](C)C[C@H](N(C)C)[C@H]2O)[C@](C)(O)C[C@@H](C)C(=O)[C@H](C)[C@@H](O)[C@]1(C)O [ERY, Erythromycin]",antimicrobial susceptibility,S. epidermidis [4],R

# — PMC7743948, “D-LL-31 enhances biofilm-eradicating effect of currently used antibiotics for chronic rhinosinusitis and its immunomodulatory activity on human lung epithelial cells” (PLoS ONE, 2020)
